Key:
[1] = tested on: MDA-MB-231 tumor cells expressing PD-L1; assay: Rescue of mouse splenocyte proliferation inhibited by MDA-MB-231 tumor cells expressing PD-L1 (CFSE based assay); format: cell-based; conditions: for Fold induction: % splenocyte proliferation / % background proliferation, background 1.0, stimulated 3.7; for % Splenocyte proliferation: mouse splenocytes + anti-CD3/CD28 + MDA-MB-231 cells + compound, 72 hrs, background 20, stimulated 74
Source text: (§1) The effect of PD1 derived peptidomimetics on mouse splenocyte proliferation inhibited by recombinant PDL1 or tumor cells expressing PDL; analyzed by Fluorescence Activated Cell Shorting (FACS) method using CFSE (Carboxyfluorescein Diacetate Succinimidyl Ester) labeling.
Rescue of Mouse Splenocyte Proliferation in the Presence of Recombinant PD-L1/MDA MB-231 Cells Expressing PDL1: […]
(§2) Mouse splenocytes harvested from 6-8 weeks old C57 BL6 mice; RPMI 1640 (GIBCO, Cat #11875); DMEM with high glucose (GIBCO, Cat # D6429); Fetal Bovine Serum [Hyclone, Cat # SH30071.03]; Penicillin (10000 unit/ml)-Streptomycin (10,000 μg/ml) Liquid (GIBCO, Cat #15140-122); MEM Sodium Pyruvate solution 100 mM (100×), Liquid (GIBCO, Cat #11360); Nonessential amino acid (GIBCO, Cat #11140); L-Glutamine (GIBCO, Cat #25030); Anti-CD3 antibody (eBiosciences—16-0032); Anti-CD28 antibody (eBiosciences—16-0281); ACK lysis buffer (imp (GIBCO, Cat #-A10492); Histopaque (density-1.083 gm/ml) (SIGMA 10831); Trypan blue solution (SIGMA-T8154); 2 ml Norm Ject Luer Lock syringe—(Sigma 2014-12); 40 μm nylon cell strainer (BD FALCON 35230); Hemacytometer (Bright line-SIGMA Z359629); FACS Buffer (PBS/0.1% BSA): Phosphate Buffered Saline (PBS) pH 7.2 (HiMedia TS1006) with 0.1% Bovine Serum Albumin (BSA) (SIGMA A7050) and sodium azide (SIGMA 08591); 5 mM stock solution of CFSE: CFSE stock solution was prepared by diluting lyophilized CFSE with 180 μL of Di methyl Sulfoxide (DMSO C2H6SO, SIGMA-D-5879) and aliquoted in to tubes for further use. Working concentrations were titrated from 10 μM to 1 μM. (eBioscience—650850-85); 0.05% Trypsin and 0.02% EDTA (SIGMA 59417C); 96-well format ELISA plates (Corning CLS3390); BD FACS caliber (E6016); Recombinant Human B7-H1/PDL1 Fc Chimera (rh-PDL-1, cat no: 156-B7-100);
Splenocytes harvested in a 50 ml falcon tube by mashing mouse spleen in a 40 μm cell strainer were further treated with 1 ml ACK lysis buffer for 5 mins at room temperature. After washing with 9 ml of RPMI complete media, cells were re-suspended in 3 ml of 1×PBS in a 15 ml tube. 3 ml of Histopaque was added carefully to the bottom of the tube without disturbing overlaying splenocyte suspension. After centrifuging at 800×g for 20 mins at room temperature, the opaque layer of splenocytes was collected carefully without disturbing/mixing the layers. Splenocytes were washed twice with cold 1×PBS followed by total cell counting using Trypan Blue exclusion method and used further for cell based assays.
Splenocytes were cultured in RPMI complete media (RPMI+10% fetal bovine serum+1 mM sodium pyruvate+10,000 units/ml penicillin and 10,000 μg/ml streptomycin) and maintained in a CO2 incubator with 5% CO2 at 37° C.
CFSE is a dye that passively diffuses into cells and binds to intracellular proteins. 1×10^6 cells/ml of harvested splenocytes were treated with 5 μM of CFSE in pre-warmed 1×PBS/0.1% BSA solution for 10 mins at 37° C. Excess CFSE was quenched using 5 volumes of ice-cold culture media to the cells and incubated on ice for 5 mins. CFSE labelled splenocytes were further given three washes with ice cold complete RPMI media. CFSE labelled 1×10^5 splenocytes added to wells containing either MDA-MB231 cells (1×10^5 cells cultured in high glucose DMEM medium) or recombinant human PDL-1 (100 ng/ml) and test compounds. Splenocytes were stimulated with anti-mouse CD3 and anti-mouse CD28 antibody (1 μg/ml each), and the culture was further incubated for 72 hrs at 37° C. with 5% CO2. Cells were harvested and washed thrice with ice cold FACS buffer and % proliferation was analyzed by flow cytometry with 488 nm excitation and 521 nm emission filters.
(§3) Percent splenocyte proliferation was analyzed using cell quest FACS program and fold induction was calculated by normalizing individual values to % background proliferation. […]

[2] = tested on: CT26 (murine colon carcinoma) cells; assay: In vivo efficacy on primary tumour growth in CT-26 colon cancer model; parameters: species or system mouse; conditions: male Balb/c mice, 3 mg/kg
Protocol: Two million CT26 (murine colon carcinoma) cells injected to male Balb/c mice (s.c) on day 1 and dosing started on Day 5. Each group consisted of ten animals. Tumor volumes were measured 3 times a week, body weight and clinical signs monitored daily. Compound #2 dosed at 3 mg/kg, inhibited the tumour growth to the extent of 46 percent (p<0. p<0.01, 2-way ANOVA) (FIG. 2).

recombinant mouse PDL-2 = biological target: T1, recombinant mouse PDL-2 (Mus musculus, UniProt Q9WUL5); assay: Rescue of splenocyte effector function, IFN-γ release by ELISA, recombinant mouse PDL-2; format: cell-based; conditions: mouse splenocytes, anti-CD3/CD28, PDL-2 100 ng/ml, 72 hrs, read-out: EC50 (nM), IFN-γ release, in presence of recombinant mouse PDL-2
T1 construct: purchased R&D Systems 1022-PL-100
Protocol: (§4) 1×10^5 splenocytes (isolated as described earlier) were added to wells containing recombinant mouse PDL-1 (cat no: 1019-B7-100, R&D Systems) or PDL-2 (Cat no: 1022-PL-100, R&D Systems) (both at 100 ng/ml) and test peptidomimetics. Splenocytes were stimulated with anti-mouse CD3 (eBiosciences—16-0032) and anti-mouse CD28 antibody (eBiosciences—16-0281) (1 μg/ml each) and the culture was further incubated for 72 hrs at 37° C. with 5% CO2. After 72 hours of incubation the cell culture supernatants were collected after brief centrifugation of culture plates (200 g×5 mins at 4° C.) and processed for mouse IFN-γ measurement by ELISA following manufacturer's protocol (e Biosciences; 88-7314). In brief, 96 well ELISA plates were coated with 100 μl/well of capture antibody in coating buffer and incubated overnight at 4° C. Plates were washed five times with wash buffer and further blocked with 200 μl of 1× assay diluents for 1 hr at RT. Following wash step, 100 μl of cell culture supernatants were added to wells and further incubated for 2 hrs at RT. Appropriate standards were also included. After wash step, plate was incubated for one hour with 100 μl/well of detection antibody. The wash step was repeated and the plate was incubated for 30 minutes with 100 μl/well of Avidin-HRP. The plate was washed 7 times with wash buffer and incubated for 15 minutes with 100 μl/well of substrate solution. 50 μl of stop solution was added to each well and the plate was read at 450 nm. The absorbance values were then plotted against the standards and the concentration of IFN-γ was determined using GraphPad Prism software. Each experimental condition was carried out in triplicates. Percent IFN-γ release for each test compound concentration was calculated by normalising individual test compound IFN-γ values to anti-CD3+anti-CD28 stimulated IFN-γ value. The percent IFN-γ release by test compounds were calculated using following formula: % IFN-γ release=[(Test compound IFN-γ−PDL background control)/(anti-CD3+anti-CD28 positive control−PDL background control)]*100. […]

recombinant human PDL-1 = biological target: T2, recombinant human PDL-1 (Homo sapiens, UniProt Q9NZQ7); assay: Rescue of mouse splenocyte proliferation inhibited by recombinant human PDL-1 (CFSE, FACS); format: cell-based; conditions: mouse splenocytes, anti-CD3/CD28 stimulated, rh-PDL-1 100 ng/ml, 72 hrs
T2 construct: Fc (Fc chimera); purchased R&D Systems 156-B7-100
Source text: as §1
Rescue of Mouse Splenocyte Proliferation in the Presence of Recombinant PD-L1/MDA MB-231 Cells Expressing PDL1:
Alternatively, recombinant human PD-L1 (rh-PDL-1, cat no: 156-B7-100, R&D Systems) was also used as the source of PD-Ll.
as §2, with “Working concentrations were titrated from 10 μM to 1 μM. (eBioscience—650850-85); 0.05% Trypsin and 0.02% EDTA (SIGMA 59417C); 96-well format ELISA plates (Corning CLS3390); BD FACS caliber (E6016); Recombinant Human B7-H1/PDL1 Fc Chimera (rh-PDL-1, cat no: 156-B7-100);” left out
CFSE is a dye that passively diffuses into cells and binds to intracellular proteins. […] Cells were harvested and washed thrice with ice cold FACS buffer and % proliferation was analyzed by flow cytometry with 488 nm excitation and 521 nm emission filters.
as §3

recombinant mouse PDL-1 = biological target: T3, recombinant mouse PDL-1 (Mus musculus, UniProt Q9EP73); assay: Rescue of splenocyte effector function, IFN-γ release by ELISA, recombinant mouse PDL-1; format: cell-based; conditions: mouse splenocytes, anti-CD3/CD28, PDL-1 100 ng/ml, 72 hrs, read-out: EC50 (nM), IFN-γ release, in presence of recombinant mouse PDL-1
T3 construct: purchased R&D Systems 1019-B7-100
Protocol: as §4

T1 sequence (Q9WUL5 with tags, fused parts or gaps limits assumed): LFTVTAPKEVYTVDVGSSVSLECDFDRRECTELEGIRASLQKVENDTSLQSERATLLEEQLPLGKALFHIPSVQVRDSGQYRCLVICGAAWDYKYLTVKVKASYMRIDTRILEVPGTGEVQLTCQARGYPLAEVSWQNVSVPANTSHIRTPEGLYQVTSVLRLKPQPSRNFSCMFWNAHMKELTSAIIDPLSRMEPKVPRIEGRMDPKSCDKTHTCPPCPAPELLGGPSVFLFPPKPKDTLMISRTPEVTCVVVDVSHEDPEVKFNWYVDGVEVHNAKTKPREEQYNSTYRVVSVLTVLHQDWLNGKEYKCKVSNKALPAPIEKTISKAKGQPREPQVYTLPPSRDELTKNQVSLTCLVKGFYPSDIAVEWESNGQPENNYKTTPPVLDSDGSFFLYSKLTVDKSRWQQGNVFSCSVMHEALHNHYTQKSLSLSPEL
T2 sequence (Q9NZQ7 with tags, fused parts or gaps limits assumed): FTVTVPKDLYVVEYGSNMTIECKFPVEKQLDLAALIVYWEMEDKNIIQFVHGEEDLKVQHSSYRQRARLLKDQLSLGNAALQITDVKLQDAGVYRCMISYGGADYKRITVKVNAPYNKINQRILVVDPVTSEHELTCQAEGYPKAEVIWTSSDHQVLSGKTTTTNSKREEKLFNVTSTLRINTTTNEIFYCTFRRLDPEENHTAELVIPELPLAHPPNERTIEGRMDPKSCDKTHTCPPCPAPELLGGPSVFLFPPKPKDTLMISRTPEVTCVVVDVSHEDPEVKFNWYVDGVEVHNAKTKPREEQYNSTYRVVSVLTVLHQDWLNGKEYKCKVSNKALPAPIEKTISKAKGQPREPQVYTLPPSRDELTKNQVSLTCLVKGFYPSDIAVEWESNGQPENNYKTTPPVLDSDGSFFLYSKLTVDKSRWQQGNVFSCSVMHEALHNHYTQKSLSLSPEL
T3 sequence (Q9EP73 with tags, fused parts or gaps limits assumed): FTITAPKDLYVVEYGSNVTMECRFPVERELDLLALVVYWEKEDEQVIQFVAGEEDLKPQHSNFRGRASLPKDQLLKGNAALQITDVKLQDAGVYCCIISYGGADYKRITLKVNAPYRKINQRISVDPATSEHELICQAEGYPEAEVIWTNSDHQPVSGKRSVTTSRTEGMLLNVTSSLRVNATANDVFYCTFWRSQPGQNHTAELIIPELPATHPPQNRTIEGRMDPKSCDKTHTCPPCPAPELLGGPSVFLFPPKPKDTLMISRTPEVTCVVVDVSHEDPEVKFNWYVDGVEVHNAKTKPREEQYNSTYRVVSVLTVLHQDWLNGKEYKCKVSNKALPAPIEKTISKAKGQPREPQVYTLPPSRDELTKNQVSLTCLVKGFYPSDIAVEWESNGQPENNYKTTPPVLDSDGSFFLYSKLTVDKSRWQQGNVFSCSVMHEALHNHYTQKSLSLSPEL

Compound | Fold induction [1] | % Splenocyte proliferation [1] [%] | other results
NC(=O)C[C@H](N)C(=O)NNC(=O)[C@@H](N)CO [Compound 1] | 2.8 | 56 | 
CC(O)[C@H](NC(=O)N[C@@H](CC(N)=O)C(=O)NNC(=O)[C@@H](N)CO)C(=O)O (some centres unmarked) [Compound 2] | 3.4 | 68 | body weight reduction during the period of dosing ([2]; CT26 model): no body weight reduction; clinical signs during the period of dosing ([2]; CT26 model): no clinical signs; inhibition of tumour growth ([2]; CT26 s.c., dosing from Day 5): 46%; EC50 (recombinant mouse PDL-2): 40 nM; EC50 (recombinant human PDL-1): 23 nM; EC50 (recombinant mouse PDL-1): 30 nM
CN[C@@H](CO)C(=O)NNC(=O)[C@H](CC(N)=O)NC(=O)N[C@H](C(=O)O)C(C)O (some centres unmarked) [Compound 4] | 2.8 | 56 | 
CC(O)[C@H](N)C(=O)N[C@@H](CC(N)=O)C(=O)NNC(=O)[C@@H](N)CO (some centres unmarked) [Compound 5] | 3 | 60 | 
CC(O)[C@H](NC(=O)N[C@@H](CC(N)=O)C(=O)NNC(=O)[C@@H](N)CO)C(N)=O (some centres unmarked) [Compound 6] | 2.3 | 46 | 
NC(=O)C[C@H](NC(=O)N[C@@H](CC(=O)O)C(=O)O)C(=O)NNC(=O)[C@@H](N)CO [Compound 7] | 2.9 | 57 | 
CCC(C)[C@H](NC(=O)N[C@@H](CC(N)=O)C(=O)NNC(=O)[C@@H](N)CO)C(=O)O (some centres unmarked) [Compound 8] | 3 | 60 | 
COC(=O)[C@@H](NC(=O)N[C@@H](CC(N)=O)C(=O)NNC(=O)[C@@H](N)CO)C(C)O (some centres unmarked) [Compound 10] | 3.4 | 67 | 
COC[C@H](N)C(=O)NNC(=O)[C@H](CC(N)=O)NC(=O)N[C@H](C(=O)O)C(C)O (some centres unmarked) [Compound 11] | 2.2 | 44 | 
CC(O)[C@H](N)C(=O)NNC(=O)[C@H](CC(N)=O)NC(=O)N[C@@H](CO)C(=O)O (some centres unmarked) [Compound 12] |  |  | EC50 (recombinant mouse PDL-2): 62 nM; EC50 (recombinant human PDL-1): 22 nM; EC50 (recombinant mouse PDL-1): 27 nM
CC(O)[C@@H](N)C(=O)NNC(=O)[C@@H](CC(N)=O)NC(=O)N[C@H](CO)C(=O)O (some centres unmarked) [Compound 13] | 3.4 | 67 | EC50 (recombinant mouse PDL-2): 30 nM; EC50 (recombinant human PDL-1): 35 nM; EC50 (recombinant mouse PDL-1): 40 nM
CC(O)[C@H](NC(=O)N[C@H](CC(N)=O)C(=O)NNC(=O)[C@H](N)CO)C(=O)O (some centres unmarked) [Compound 15] | 2.9 | 58 | 
C[C@H](NC(=O)N[C@@H](CC(N)=O)C(=O)NNC(=O)[C@@H](N)CO)C(=O)O [Compound 17] | 3 | 59 | 
CNC(=O)N[C@H](C(=O)N[C@@H](CC(N)=O)C(=O)NNC(=O)[C@@H](N)CO)C(C)O (some centres unmarked) [Compound 18] | 3 | 59 | 
